Laboratory results published in patent US11642319B2, “Targeted nanogels for urinary bladder therapies” (THE REGENTS OF THE UNIVERSITY OF COLORADO, priority 2017, dated 2023).
Ends that are not written are not given here.

Experiments:
[1] = system: MB49 bladder carcinoma cell line; assay: Peptide uptake by MB49 bladder carcinoma cells; format: cell-based, murine
Description: An MB49 bladder carcinoma cell line was maintained in full Dulbecco's modified Eagle's medium (DMEM) with antibiotics and L-glutamine. Cells were seeded on 24 well plates for at least 24 hours to allow the cells to grow to confluence; each sample was done in triplicate. Samples were then incubated with one of free CGKRK (SEQ ID NO:1) and KAREC (SEQ ID NO:2), micelles of these two peptides, fluorescence TAT peptide (positive control), and PBS (negative control). After the incubation, all wells were washed with PBS three times to remove any free fluorescence molecules. Cells were detached from the wells with trypsin at 37° C. for 5 minutes. 0.3% Triton X-100 in PBS was added to the cells, and after 30 minutes of incubation, the solutions were centrifugated in an Eppendorf microcentrifuge at 15,000 rpm. The fluorescence intensity of the supernatant was measured using a fluorescence plate reader. For confocal imaging, cells were grown on glass chamber slides. Following the incubation experiment, cells were imaged with a Nikon MR Confocal STORM super-resolution microscope.

[2] = Peptide binding to heparin-coated wells; conditions: FIG. 5B
Description: (§1) The peptides CGKRK (SEQ ID NO:1) and KAREC (SEQ ID NO:2) were diluted two-fold in PBS at different concentrations and added to collagen- and heparin-coated wells preblocked with 5% bovine serum albumin. The plates were incubated at room temperature for 1 hour, washed 4 times with 200 μL PBS, and scanned at […] of 485 and 515 nm using a SpectraMax M5 fluorescence plate reader. The PBS background was subtracted from the data points, and the data were plotted with Prism.

[3] = biological target: collagen type I (Homo sapiens, UniProt P02452+P08123); assay: Peptide binding to collagen-coated wells; conditions: FIG. 5C
Description: as §1

[4] = system: bladder urothelium; assay: Intravesical peptide binding to the mouse bladder with or without injury (in situ imaging, histology); format: in vivo, mice; conditions: for Binding in the bladder, in situ images: 15 minutes incubation; for Histological analysis of binding, entire bladder: 2× magnification
Description: Eight-to twelve-week-old female mice were anesthetized with isoflurane using a vaporizer machine at a flow rate of 1-3 L/min. The mice were placed on their backs and their urethra openings were pulled forward while squeezing the bladder to express urine. A lubricated 24 G Angiocath catheter with no needle was inserted via the urethra into the bladder cavity to wash the bladder once with […] PBS. To imitate a bladder injury subsequent to bladder cancer surgery, in which the urothelium is damaged after the removal of cancer tissues, the catheter tip was inserted completely and five circular motions were made in the apical part of the bladder. A 1 mL syringe with 100 μL of a CGKRK peptide (SEQ ID NO:1) solution (0.3 mg/mL in 80% PBS/20% DMSO) was attached to the catheter, and approximately 50 μL of the solution was injected into the bladder until the bladder was completely distended, as determined by abdominal palpitation. The catheter with attached syringe was left in the bladder for 15 minutes. After incubation, the peptide was removed via negative pressure, and the bladder was washed 5 times with PBS, with complete filling of the bladder each time. A Dino-Lite AM4113T-GRFBY camera equipped with 480- and 570-nm excitation filters and 510- and 610-nm long pass emission filters was used to take images of the bladder in situ. The abdominal cavity was opened by incision, and the bladder was imaged at 20 to 40 times magnification. The images were acquired at 1280×1024 resolution.
Freshly removed bladders were washed in PBS and snap frozen in liquid nitrogen. The tissue was embedded in optical cutting temperature (OCT) media and cryosectioned in consecutive 7-μm steps so that alternating sections were mounted on slides for fluorescence imaging and hematoxylin-eosin (H&E) staining, respectively. The tissues on each slide were fixed in a 10% buffered formalin solution, mounted with Vectashield™ antifade mounting medium with DAPI (for fluorescence imaging) or Permount™ medium (for H&E staining), and covered with a coverslip. The bladders imaged with a Nikon E600 upright fluorescence microscope with a SPOT RT color camera. The images in each fluorescence channel were acquired under saturation as 12-bit gray TIFF files, and H&E images were acquired as RGB images. Each low-magnification image covering the entire bladder area was analyzed with ImageJ software. The background was subtracted, and the integrated gray density per image was calculated. The intensities were plotted as individual values using Prism software.
Referring now to FIGS. 6A and 6B, the effect of mechanical injury on accumulation of peptides in the bladder is illustrated. Mice were treated by washing the bladder and inducing injury to the mucosal surface of the bladder; the peptide was then injected into the bladder and incubated 15 minutes; the bladder was then washed 5 times. […] The arrows in FIGS. 6A and 6B indicate the apical region of the bladder.
An investigation of the mechanisms of injury-induced accumulation of CGKRK (SEQ ID NO:1) was conducted. CGKRK (SEQ ID NO:1) was mixed with EDTA-treated blood and administered intravesically. […] Mice were pretreated with the anti-inflammatory agent dexamethasone prior to injury.

Sequence of collagen type I (P02452 162-1218 limits assumed): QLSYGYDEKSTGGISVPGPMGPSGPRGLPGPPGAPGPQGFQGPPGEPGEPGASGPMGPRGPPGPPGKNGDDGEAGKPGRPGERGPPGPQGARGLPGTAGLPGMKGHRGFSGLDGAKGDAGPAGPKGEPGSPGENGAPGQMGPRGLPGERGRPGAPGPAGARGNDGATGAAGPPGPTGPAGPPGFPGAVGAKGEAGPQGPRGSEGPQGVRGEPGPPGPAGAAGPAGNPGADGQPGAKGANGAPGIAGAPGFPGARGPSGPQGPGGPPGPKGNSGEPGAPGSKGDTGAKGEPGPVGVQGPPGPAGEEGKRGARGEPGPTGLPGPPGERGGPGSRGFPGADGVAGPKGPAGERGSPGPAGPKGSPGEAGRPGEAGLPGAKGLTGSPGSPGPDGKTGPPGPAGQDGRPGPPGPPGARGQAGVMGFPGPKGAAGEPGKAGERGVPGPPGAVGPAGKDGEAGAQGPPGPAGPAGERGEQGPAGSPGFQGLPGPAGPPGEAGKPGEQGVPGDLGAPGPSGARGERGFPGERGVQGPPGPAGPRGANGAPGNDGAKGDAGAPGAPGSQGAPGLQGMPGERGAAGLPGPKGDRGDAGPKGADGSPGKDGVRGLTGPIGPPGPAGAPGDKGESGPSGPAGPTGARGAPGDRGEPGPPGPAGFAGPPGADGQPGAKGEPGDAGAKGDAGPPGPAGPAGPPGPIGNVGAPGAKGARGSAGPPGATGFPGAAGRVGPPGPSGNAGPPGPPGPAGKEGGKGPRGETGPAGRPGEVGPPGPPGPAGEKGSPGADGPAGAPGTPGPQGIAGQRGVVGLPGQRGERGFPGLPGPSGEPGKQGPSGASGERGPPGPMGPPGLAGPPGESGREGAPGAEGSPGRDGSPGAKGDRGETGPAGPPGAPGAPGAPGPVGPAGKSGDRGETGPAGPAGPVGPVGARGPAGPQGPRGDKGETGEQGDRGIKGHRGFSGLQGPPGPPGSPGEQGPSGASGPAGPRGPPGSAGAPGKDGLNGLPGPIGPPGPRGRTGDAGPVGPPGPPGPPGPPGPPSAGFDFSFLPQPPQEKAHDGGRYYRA
Sequence of collagen type I (P08123 80-1119 limits assumed): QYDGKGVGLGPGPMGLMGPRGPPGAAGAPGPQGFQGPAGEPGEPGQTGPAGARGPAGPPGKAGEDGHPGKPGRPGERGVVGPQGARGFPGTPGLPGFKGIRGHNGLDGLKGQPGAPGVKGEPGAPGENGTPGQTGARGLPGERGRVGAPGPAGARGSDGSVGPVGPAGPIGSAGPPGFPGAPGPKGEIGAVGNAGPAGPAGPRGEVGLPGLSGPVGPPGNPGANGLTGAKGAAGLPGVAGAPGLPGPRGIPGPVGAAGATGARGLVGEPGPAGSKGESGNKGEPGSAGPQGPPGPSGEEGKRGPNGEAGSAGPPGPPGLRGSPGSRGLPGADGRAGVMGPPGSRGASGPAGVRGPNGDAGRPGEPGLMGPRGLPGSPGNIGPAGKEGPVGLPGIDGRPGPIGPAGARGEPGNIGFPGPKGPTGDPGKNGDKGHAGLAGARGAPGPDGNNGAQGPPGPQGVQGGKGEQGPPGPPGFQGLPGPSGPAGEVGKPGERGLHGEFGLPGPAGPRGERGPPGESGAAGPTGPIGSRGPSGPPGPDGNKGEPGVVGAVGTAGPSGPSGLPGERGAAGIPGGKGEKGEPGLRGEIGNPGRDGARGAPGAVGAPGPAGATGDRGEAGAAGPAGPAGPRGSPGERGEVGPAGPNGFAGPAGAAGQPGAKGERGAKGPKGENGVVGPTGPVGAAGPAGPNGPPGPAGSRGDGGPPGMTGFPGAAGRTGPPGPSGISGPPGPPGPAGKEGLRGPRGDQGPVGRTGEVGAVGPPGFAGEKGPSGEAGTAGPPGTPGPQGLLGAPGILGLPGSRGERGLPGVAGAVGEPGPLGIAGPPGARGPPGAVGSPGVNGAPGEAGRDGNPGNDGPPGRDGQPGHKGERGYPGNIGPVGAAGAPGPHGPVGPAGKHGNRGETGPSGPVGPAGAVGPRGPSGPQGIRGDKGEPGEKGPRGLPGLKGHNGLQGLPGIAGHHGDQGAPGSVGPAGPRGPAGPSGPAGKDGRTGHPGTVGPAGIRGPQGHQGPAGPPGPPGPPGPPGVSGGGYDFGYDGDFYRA

Kinetics of binding to heparin (curve fit) [2] | Kinetics of binding to collagen (curve fit) [3] | Substance | Cellular uptake, accumulation in the cytoplasm (confocal images) [1] | Peptide uptake quantified by fluorescence spectroscopy ([1]; FIG. 5A, versus KAREC) | Binding to heparin ([2]; versus KAREC) | Binding to collagen type I ([3]; versus KAREC) | Accumulation after chemical disruption of the urothelium barrier with ethanol ([4]; 2× and 20× magnification) | Binding in the bladder, in situ images ([4]; absence of focal injury) | Binding in the bladder, in situ images ([4]; after mechanical injury) | Histological analysis of binding, entire bladder ([4]; injured bladder, FIG. 7) | Histological analysis of binding, tissue layers ([4]; injured bladder, 20× magnification, FIG. 7) | Injury-induced binding after dexamethasone pretreatment ([4]; mice pretreated with dexamethasone prior to injury) | Binding when mixed with EDTA-treated blood ([4]; no injury, intravesical)
linear kinetics for other binding | saturation kinetics | CGKRK (also: fluorescent label) [cell-penetrating pentapeptide, fluorescently labelled in the tests] | significant accumulation | significantly more accumulation | more efficient binding to both heparin and collagen type I | more efficient binding to both heparin and collagen type I | widespread accumulation | no binding | efficient binding after injury | widespread binding | accumulation of the peptide in the urothelium (U) and some penetration into the muscle layer (ML) | did not block injury-induced binding | Blood did not induce binding in the absence of injury
linear kinetics for other binding | linear kinetics for other binding | KAREC [comparison peptide tested beside CGKRK, reference compound] | – | – | – | – | – | – | limited binding at the injury site | less efficient and less widespread accumulation | – | – | –
